According to patent US11059800B2, “Dehydroleucodine derivatives and uses thereof” (Bioventures, LLC, priority 2013, dated 2021):

How the values were obtained:
HL-60 = test: Cytotoxicity, annexin V/7-AAD viability by flow cytometry, HL-60; assay type: cell-based, human; details: HL-60, 48 hours, drug range tested 1.25-160 μM
Protocol: (§1) In order to assess the structure-activity relationship of DHL and its derivatives, DHL and its derivatives were evaluated against eight human leukemia cell lines. Cell lines were cultured in Iscove's Modified Dulbecco's Medium (IMDM) supplemented with 10%˜20% fetal bovine serum (FBS) according to culture conditions indicated by ATCC and 1% penicillin/streptomycin (Pen/Strep) at 37° C. and 5% CO2. The cells were seeded into 96-well plates and kept at a concentration of 0.5 million cells per mL. The samples were treated with DHL, Leucodine, DHL-Morpholine, DHL-Proline, DHL-Piperidine, and PTL at varying concentrations in triplicates. Cell viability was determined after incubating for 48 hours. The cells were stained with annexin V-fluorescein isothiocyanate or phycoeritrine (FITC/PE) and 7-aminoactinomycin (7-AAD) to detect phosphatidylserine exposition and cell permeability, respectively. At least 50,000 events were recorded per condition on either an LSR-II or LSR-Fortessa flow cytometer (BD Biosciences). Data analysis was conducted using FlowJo 9.6 software for Mac OS X (TreeStar). Cells that were negative for annexin V and 7-AAD were scored as viable.

TUR = test: Cytotoxicity, annexin V/7-AAD viability by flow cytometry, TUR; assay type: cell-based, human; details: 48 hours, drug range tested 1.25-160 μM
Protocol: as §1

SNB-75 = test: Single dose tumor cell growth inhibition, CNS Cancer SNB-75; assay type: cell-based, human; details: SNB-75, single dose 10 μM
Excerpt: (§2) DHL is cytotoxic to various leukemia, colon cancer, CNS cancer and prostate cancer cell lines.

PC-3 = test: Single dose tumor cell growth inhibition, Prostate Cancer PC-3; assay type: cell-based, human; details: PC-3, single dose 10 μM
Excerpt: as §2

HMOX1 (Heme oxygenase 1) = test: Quantitative PCR of HMOX1 in MOLM-13 or MV-411 cells; assay type: cell-based; details: 20 μM, 6 hours, MOLM-13 and MV-411 cells
Protocol: (§3) (FIG. 8A) Graphical representation of the fold changes of HMOX-1 in MOLM-13 cells. Cells were seeded at 0.5 million cells per milliliter and subject to 20 μM of DHL, leucodine, DHL-proline, DHL-piperidine, DHL-morpholine, or parthenolide for 6 hours. RNA was then extracted and quantitative PCR was performed. Experiments were performed in triplicates. Lines represent mean for each specimen, with error bars representing the SD. Fold change was calculated by the delta-delta Ct method. […] (FIG. 8D) Immunoblot for MOLM-13 cells after 6 hours of treatment with either DHL or PTL with 10 or 20 μM. Blot was probed for phospho-p65 and p65 antibodies. Total p65 is shown as the loading control.
(FIG. 9A) Graphical representation of the fold changes of HMOX-1 in MV-411 cells. Cells were seeded at 0.5 million cells per milliliter and subject to 20 μM of DHL, leucodine, DHL-proline, DHL-piperidine, DHL-morpholine, or parthenolide for 6 hours. RNA was then extracted and quantitative PCR was performed. Experiments were performed in triplicates. Lines represent mean for each specimen, with error bars representing the SD. Fold change was calculated by the delta-delta Ct method. (FIG. 9B) Graphical representation of the fold changes of HSPA1A in MV-411 cells, with the same experimental setup and analysis as FIG. […].
(§4) To compare these intracellular effects of DHL and its derivatives, quantitative PCR was performed (FIG. 8 and FIG. 9). MOLM-13 or MV-411 cells were seeded at 0.5 million cells per milliliter. Cells were treated for 6 hours with 20 μM of DHL, Leucodine, DHL-Morpholine, DHL-Proline, DHL-Piperidine or PTL, and then collected. Total RNA was extracted using the Qiashredder and Qiagen Rneasy Mini kits. […] Quantitative PCR was performed using probes for HMOX-1 (Hs01110251_m1), HSPA1A (Hs00359163_s1), and NFKB1 (Hs00765730_m1). […] Single-plex real-time PCR was performed in triplicates in a StepOne plus RealTime PCR system and analyzed with the StepOne Software. Fold change was calculated using the 2-DDCT method described by Livak and Schmittgen.

NF-κB = test: Quantitative PCR of NF-κB transcript in MOLM-13 and MV-411 cells; assay type: cell-based; details: 20 μM, 6 hours
Protocol: as §3
as §4, with “collected.” for “collected. Total RNA was extracted using the Qiashredder and Qiagen Rneasy Mini kits.”

`C=C1C(=O)O[C@@H]2[C@H]3C(C)=CC(=O)C3=C(C)CC[C@@H]12` [DHL, dehydroleucodine] gave an LD50 (HL-60) of 14.13 µM, an LD50 (TUR) of 12.18 µM and a Percent inhibition (SNB-75) of 35.5%. The Percent inhibition (PC-3) was 38.6%, the “HMOX1 expression, fold change” value (HMOX1 (Heme oxygenase 1)) was “upregulated” and the “NF-κB transcript levels” value (NF-κB) was “slightly downregulated”.
